Patent US9540400B2, “Compounds as diacylglycerol acyltransferase inhibitors” (GlaxoSmithKline Intellectual Property (No. 2) Limited, priority 2011, dated 2017)

Molecular target: T1, Human DGAT1 (Homo sapiens, UniProt O75907)
T1 construct: made in house; host or cells: Sf9 insect cells (baculovirus); microsomes
T1 sequence (O75907 1-488): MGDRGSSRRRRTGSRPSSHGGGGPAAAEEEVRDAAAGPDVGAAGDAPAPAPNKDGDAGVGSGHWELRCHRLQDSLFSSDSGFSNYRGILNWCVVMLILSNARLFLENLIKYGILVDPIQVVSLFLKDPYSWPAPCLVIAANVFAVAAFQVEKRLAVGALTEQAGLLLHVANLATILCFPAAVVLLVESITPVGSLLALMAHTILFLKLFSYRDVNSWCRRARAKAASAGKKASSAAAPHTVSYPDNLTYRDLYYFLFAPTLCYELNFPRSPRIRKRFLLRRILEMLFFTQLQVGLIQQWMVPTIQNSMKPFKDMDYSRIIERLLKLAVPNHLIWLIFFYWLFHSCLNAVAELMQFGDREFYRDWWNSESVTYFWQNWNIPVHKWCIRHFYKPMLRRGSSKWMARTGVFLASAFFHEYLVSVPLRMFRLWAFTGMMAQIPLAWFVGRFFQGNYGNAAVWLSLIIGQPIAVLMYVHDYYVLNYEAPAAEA
Experiment: hDGAT1 fluorescence (CPM) assay, inhibition of CoA product formation
Assay type: biochemical
Settings: human DGAT1 microsomes from Sf9 cells
Protocol: Human DGAT1 was expressed in Sf9 insect cells using a baculovirus expression system. Microsomes were prepared and used as enzyme for in vitro inhibition testing in either of two formats measuring production of coenzyme A or tridecanoylglycerol product, respectively. All steps were performed at 21-23° C. All data for DGAT1 inhibition by test compounds were collected under conditions where product formation was linear with reaction time.
For inhibition of CoA product formation, test compounds were prepared in 100% DMSO, diluted 100-fold into assay buffer, and 10 uL added to 96-well half-area plates (Greiner 675076). An equal volume (10 uL) of 3× enzyme in buffer was added and the components incubated for 30 minutes pre-reaction incubation to allow enzyme and test compounds to attain binding equilibrium. […] Some assays were performed with inclusion of didecanoylglycerol in the pre-reaction incubation of test compound and enzyme. DGAT reactions (30 uL) were initiated upon addition of 10 uL of 3× substrate solution. Final reaction conditions consisted of 20 mM HEPES pH 7.5, 2 mM MgCl2, 1 mM CHAPS, 50 uM didecanoylglycerol, 3 uM decanoyl-CoA, 1 ug/mL microsomal protein, and 1% DMSO. Following a 60 minute reaction incubation, reactions were stopped and CoA product derivatized with 30 uL of buffer containing 10 uM {4-[4-(4-amino-7,7-dimethyl-7H-pyrimido[4,5-b][1,4]oxazin-6-yl)phenyl]cyclohexyl}acetic acid and 50 uM 7-diethylamino-3-(4′-maleimidylphenyl)-4-methylcoumarin (CPM). Fluorescence was read using Envision reader at Ex 405 nm/Em 480 nm about 30 minutes after addition of final solution. Inhibition was normalized to controls containing DMSO or 10 uM {4-[4-(4-amino-7,7-dimethyl-7H-pyrimido[4,5-b][1,4]oxazin-6-yl)phenyl]cyclohexyl}acetic acid. IC50s were fitted using GraphPad Prism to a sigmoidal dose response.

Row | Structure (SMILES) | IC50 [nM]
1 | Nc1ncnc2c1C(=O)N(c1ccc3c(ccn3-c3cnccn3)c1)CCO2 [Example 87, 4-amino-6-[1-(pyrazin-2-yl)-1H-indol-5-yl]-5H,6H,7H,8H-pyrimido[5,4-f][1,4]oxazepin-5-one] | 55.1
2 | C=CCn1c2ccc(N3CCOc4ncnc(N)c4C3=O)cc2c(=O)n1Cc1ccccc1 [Example 10, 6-(1-Allyl-2-benzyl-3-oxo-2,3-dihydro-1H-indazol-5-yl)-4-amino-7,8-dihydropyrimido[5,4-f][1,4]oxazepin-5(6H)-one] | 42
3 | Nc1ncnc2c1C(=O)N(c1cnc3c(ccn3CCO)c1)CCO2 [Example 59, 4-amino-6-[1-(2-hydroxyethyl)-1H-pyrrolo[2,3-b]pyridin-5-yl]-5H,6H,7H,8H-pyrimido[5,4-f][1,4]oxazepin-5-one] | 49.5
4 | CCCn1c(-c2ccccc2)cc2cc(N3CCOc4ncnc(N)c4C3=O)ccc21 [Example 95, 4-Amino-6-(2-phenyl-1-propyl-1H-indol-5-yl)-7,8-dihydropyrimido[5,4-f][1,4]oxazepin-5(6H)-one] | 10.1
5 | CCCn1ccc2cc(N3CCOc4ncnc(N)c4C3=O)ccc21 [Example 12, 4-Amino-6-(1-propyl-1H-indol-5-yl)-7,8-dihydropyrimido[5,4-f][1,4]oxazepin-5(6H)-one] | 16.3
6 | CCCn1[nH]c(=O)c2cc(N3CCOc4ncnc(N)c4C3=O)ccc21 [Example 11, 4-Amino-6-(3-oxo-1-propyl-2,3-dihydro-1H-indazol-5-yl)-7,8-dihydropyrimido[5,4-f][1,4]oxazepin-5(6H)-one] | 6.3
7 | CC(C)c1cn(-c2ccccc2)c2ccc(N3CCOc4ncnc(N)c4C3=O)cc12 [Example 94, 4-Amino-6-(3-isopropyl-1-phenyl-1H-indol-5-yl)-7,8-dihydropyrimido[5,4-f][1,4]oxazepin-5(6H)-one] | 873
8 | Nc1ncnc2c1C(=O)N(c1ccc3c(ccn3-c3nccs3)c1)CCO2 [Example 82, 4-Amino-6-(1-(thiazol-2-yl)-1H-indol-5-yl)-7,8-dihydropyrimido[5,4-f][1,4]oxazepin-5(6H)-one] | 20.5
9 | Nc1ncnc2c1C(=O)N(c1ccc3c(ccn3-c3ccc(C(F)(F)F)nc3)c1)CCO2 [Example 83, 4-Amino-6-(1-(6-(trifluoromethyl)pyridin-3-yl)-1H-indol-5-yl)-7,8-dihydropyrimido[5,4-f][1,4]oxazepin-5(6H)-one] | 40
10 | Nc1ncnc2c1C(=O)N(c1cnc3c(ccn3-c3ccc(C(F)(F)F)cc3)c1)CCO2 [Example 66, 4-Amino-6-(1-(4-(trifluoromethyl)phenyl)-1H-pyrrolo[2,3-b]pyridin-5-yl)-7,8-dihydropyrimido[5,4-f][1,4]oxazepin-5(6H)-one] | 42.5

More lines, in order of falling IC50, values ahead:

Row | IC50 [nM] | Structure (SMILES)
11 | 372 | Nc1ncnc2c1C(=O)N(c1ccc3c(c1)CCC(=O)N3CC(=O)O)CCO2 [Example 3, 2-(6-{4-amino-5-oxo-5H,6H,7H,8H-pyrimido[5,4-f][1,4]oxazepin-6-yl}-2-oxo-1,2,3,4-tetrahydroquinolin-1-yl)acetic acid]
12 | 85.8 | CN1CCc2cc(N3CCOc4ncnc(N)c4C3=O)ccc2C1=O [Example 6, 6-{4-amino-5-oxo-5H,6H,7H,8H-pyrimido[5,4-f][1,4]oxazepin-6-yl}-2-methyl-1,2,3,4-tetrahydroisoquinolin-1-one]
13 | 25.7 | Nc1ncnc2c1C(=O)N(c1cnc3c(ccn3C3CC3)c1)CCO2 [Example 34, 4-Amino-6-(1-cyclopropyl-1H-pyrrolo[2,3-b]pyridin-5-yl)-7,8-dihydropyrimido[5,4-f][1,4]oxazepin-5(6H)-one]
14 | 7.3 | Nc1ncnc2c1C(=O)N(c1ccc3c(ccn3-c3ccc(C(F)(F)F)cc3)c1)CCO2 [Example 78, 4-amino-6-{1-[4-(trifluoromethyl)phenyl]-1H-indol-5-yl}-5H,6H,7H,8H-pyrimido[5,4-f][1,4]oxazepin-5-one]
15 | 2.5 | Nc1ncnc2c1C(=O)N(c1ccc3c(ccn3-c3ccccc3F)c1)CCO2 [Example 76, 4-amino-6-[1-(2-fluorophenyl)-1H-indol-5-yl]-5H,6H,7H,8H-pyrimido[5,4-f][1,4]oxazepin-5-one]
